Experimental data taken from patent US20130102650A1, “ANTIMICROBIAL COMPOUNDS OF 1,4-NAPHTOQUINONE STRUCTURE” (priority 2010, published 2013).
In brackets after ≈: the same amount, converted by molar mass. Like-named read-outs stand apart in the source and are kept apart here.

Assays:
[1] = biological target: T1, ThyX (Paramecium bursaria Chlorella virus 1, UniProt O41156); conditions: varying dUMP concentrations
[2] = biological target: T1, ThyX; experiment: biochemical
[3] = tested on: E. coli MG1655; experiment: Growth of wild type, thyA-carrying E. coli
[4] = tested on: E. coli FE010 (ΔthyA::thyX); conditions: 1.5 μg/ml (≈5 μM), thymidine-deprived medium
[5] = tested on: Helicobacter pylori 26695; experiment: MIC by broth microdilution / disc diffusion test; type: cell-based
Experimental: Helicobacter pylori strain 26695 and SS1 were grown on either blood agar base two (Oxoid) plates supplemented with 10% defibrinated horse blood (Oxoid) or in liquid culture in brain-heart infusion broth (Oxoid) supplemented with 10% FBS (Gibco BRL). An antibiotics-fungicide mix consisting of vancomycin (final concentration 10 μg/ml), polymyxin B (2.5 units per liter), trimethoprim (5 μg/ml), and fungizone (2.5 μg/ml) was added. Plates were incubated at 37° C. under microaerobic atmosphere in jars using the […] gas generating system (Oxoid). Liquid cultures were shaken at 175 rpm. Minimal inhibitory concentrations (MICS) were determined using a broth microdilution test in 24 well microtiter plates. […] The MIC was determined as the lowest compound concentration resulting in complete growth inhibition after 24 h of incubation. All the tests were done in triplicates and they included no cells and DMSO-only controls. […] For disc diffusion test an overnight culture of H. pylori strain 26695 was diluted to OD600≈0.01 and spread on agar plates by inundation. 10 μg of each compound were deposited onto diffusion discs and plates were incubated under microaerophilic conditions for 72 h. The diameters of each inhibition zone were measured (disk surface and a DMSO inhibition zone were subtracted). All experiments were done in triplicate, including a DMSO-only control on each plate. MIC determination by broth microdilution was not possible for M. smegmatis mc2 155 due to build up of cell aggregates in liquid cultures. The susceptibility of M. smegmatis mc2 155 towards selected compounds was thus tested using disc diffusion test on LB-agar plates as described above. The inhibition diameters were read after 48 h of incubation at 37° C.

[6] = biological target: T2, PBCV-1 ThyX (Paramecium bursaria Chlorella virus 1, UniProt O41156); experiment: NADPH oxidation assay, screen and IC50 by dose-response curves
T2 sequence (O41156 whole entry): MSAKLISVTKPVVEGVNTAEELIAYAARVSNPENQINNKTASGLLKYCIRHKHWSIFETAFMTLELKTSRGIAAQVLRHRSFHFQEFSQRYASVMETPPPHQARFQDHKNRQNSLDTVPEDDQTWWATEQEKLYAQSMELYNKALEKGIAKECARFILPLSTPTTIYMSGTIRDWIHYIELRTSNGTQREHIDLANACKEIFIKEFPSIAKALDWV
Experimental: The NADPH oxidation assay for PBCV-1 ThyX activity (Graziani, S., Xia, Y., Gurnon, J. R., Van Etten, J. L., Leduc, D., Skouloubris, S., Myllykallio, H., and Liebl, U. (2004) Functional analysis of FAD-dependent thymidylate synthase ThyX from Paramecium bursaria Chlorella virus-1. J. Biol. Chem. 279, 54340-54347) was adapted for a medium throughput inhibitor screen (MTS) in 96-well plates. A typical assay with a final volume of 200 μl, contained 200 μM NADPH, 2 μM CH2H4folate, 5 μM dUMP, 1 mM MgCl2, 1% glycerol, 62.5 μM FAD and 400 nM PBCV-1 ThyX. 1982 compounds from the National Cancer Institute diversity set 1 and 340 natural compounds, selected for their diversity and drug-likeness (GreenPharma) (all in DMSO) were added to a final concentration of 20 μM for the initial screen. The microplates were prepared by a liquid handling robotic workstation (Xiril X75), and manually transferred to the automated microplate reader Chameleon II (Hidex). The reactions were started by automatically injecting NADPH into individual wells and the decrease in absorbance at 340 nm was followed at 37° C. for 5 min. Samples with added DMSO and no enzyme were used as positive and negative controls, respectively. For NADPH oxidation at 340 nm a molar extinction coefficient of 6220 M^−1 cm^−1 was used. For this assay a Z′-factor value of 0.62 was calculated, is indicating robustness of the measurement and an acceptable dynamic range of the signal (Zhang, J. H., Chung, T. D., and Oldenburg, K. R. (1999) J. Biomol. Screen. 4, 67-73). Primary hits were defined as compounds that inhibited 75% of ThyX activity at the initial screening concentration.
Compounds that inhibited PBCV-1 ThyX at 20 μM concentration in the NADPH oxidation assay were selected as hits. For each hit IC50 values were determined by fitting the data from three independent experiments to the equation for a dose-response sigmoid curve using GraphPad Prism 4 Software (GraphPad Software Inc.).
All tests were performed in triplicates in 96 well microtiter plates. A typical assay (200 μL) contained 200 μM NADPH, 2 μM dUMP, 1 mM MgCl2, 1% glycerol, 10 μM FAD, 200 nM of PBCV-1 ThyX and different concentrations of inhibitors ranging from 0.1 μM to 40 μM. The reactions were started by injection of NADPH and the absorbance at 340 nm was followed for 3 min at 37° C. […] A molar extinction coefficient for NADPH oxidation at 340 nm of 6220 M^−1 cm^−1 was used for quantification of absorption changes. The optical path length was 0.5 cm. The obtained Vi/V0 values were plotted for each inhibitor concentration and fitted to sigmoidal dose-response curves using GraphPad Prism 4 Software.

[7] = biological target: T2, PBCV-1 ThyX; experiment: Deprotonation (tritium release) assay of ThyX activity; type: biochemical, Paramecium bursaria chlorella virus (PBCV-1); conditions: read-out: % inhibition (deprotonation) PBCV-1 ThyX
[8] = tested on: Mycobacterium smegmatis mc2 155; experiment: Disc diffusion test on LB-agar plates; type: cell-based
Experimental: Liquid cultures were shaken at 175 rpm. Minimal inhibitory concentrations (MICS) were determined using a broth microdilution test in 24 well microtiter plates. […] The MIC was determined as the lowest compound concentration resulting in complete growth inhibition after 24 h of incubation. All the tests were done in triplicates and they included no cells and DMSO-only controls. […] For disc diffusion test an overnight culture of H. pylori strain 26695 was diluted to OD600≈0.01 and spread on agar plates by inundation. 10 μg of each compound were deposited onto diffusion discs and plates were incubated under microaerophilic conditions for 72 h. The diameters of each inhibition zone were measured (disk surface and a DMSO inhibition zone were subtracted). All experiments were done in triplicate, including a DMSO-only control on each plate. MIC determination by broth microdilution was not possible for M. smegmatis mc2 155 due to build up of cell aggregates in liquid cultures. The susceptibility of M. smegmatis mc2 155 towards selected compounds was thus tested using disc diffusion test on LB-agar plates as described above. The inhibition diameters were read after 48 h of incubation at 37° C.

[9] = tested on: human lymphoblastoid TK6 cells; experiment: GreenScreen HC genotoxicity and cytotoxicity assay
Experimental: Two strains of cultured human lymphoblastoid TK6 cells were used, the test strain (GenM-T01) and the non-fluorescent control strain (GenM-001), the latter was used to allow correction for any autofluorescence from the test. The plates were analyzed at 24 hour and 48 hour time points using a microplate reader, that allows measurements of light absorbance and fluorescence for cells and solutions in the microplate wells. Absorbance is proportional to cell proliferation, which is lowered by toxic analytes, and fluorescence is proportional to the activity of the cell's DNA repair system, which is increased by genotoxic analytes. […] The GreenScreen HC +S9 protocol uses the same cultured TK6 cell strains (GenM-001 and GenMT01). […] (5% CO2, 95% humidity) for 3 hours. After a recovery period of 45 hours the GFP fluorescence signal and cell viability (assessed by propidium iodide uptake) were measured.

[10] = Helicobacter pylori, H. pylori 26695, broth microdilution 24 h or derived from disc diffusion standard curve, read-out: MIC

T1 sequence (O41156 whole entry): as above

O=C1C=C(Br)C(=O)c2c(O)cccc21 [Compound 2E04, 2-bromo-8-hydroxy-1,4-naphthoquinone]
effect on apparent Km of the enzyme for dUMP [1]: increased the apparent Km value | Ki [2]: 1.5 µM | bactericidal activity on isogenic wild type strain [3]: not observed | growth inhibition of E. coli FE010 (ΔthyA::thyX) [4]: reproducibly inhibited

COc1ccc(C2=C(O)C(=O)c3ccccc3C2=O)cc1 [Compound A3-C2]
MIC [5, 10]: 4.7 µg/mL (≈ 16.8 µM) | IC50 [6]: 8 µM

Cc1ccc(C2=C(O)C(=O)c3ccccc3C2=O)cc1 [Compound A4-C2]
MIC [5, 10]: 4.7 µg/mL (≈ 17.8 µM) | IC50 [6]: 9 µM

O=C1C(O)=C(Cc2ccccc2)C(=O)c2ccccc21 [Compound A4-S]
MIC [5, 10]: 1.4 µg/mL (≈ 5.3 µM) | IC50 [6]: 1.4 µM

O=C1C(O)=C(c2ccc3ccccc3c2)C(=O)c2ccccc21 [Compound A7-S]
MIC [5, 10]: 6 µg/mL (≈ 20 µM) | IC50 [6]: 1.2 µM

O=C(O)c1ccccc1NC1=CC(=O)c2c(O)cccc2C1=O [Compound B3-C1, 2-(5-hydroxy-1,4-dioxo-1,4-dihydro-naphthalen-2-ylamino)benzoic acid]
inhibition at 20 µM [7]: 12 ± 6%

COc1ccc(CC2=C(O)C(=O)c3ccccc3C2=O)cc1 [Compound C8-C1, 2-hydroxy-3-(4-methoxybenzyl)-1,4-naphthoquinone]
inhibition at 20 µM [7]: 78 ± 4% | growth inhibition / antimicrobial activity against Helicobacter pylori 26695 [5]: inhibited the growth | MIC ([5]; Helicobacter pylori, 26695, disc diffusion tests and liquid cultures, read-out: minimal inhibitory concentration (MIC)): ~2.5 µg/mL (≈ 8.49 µM) | MIC [5, 10]: 2.5 to 5 µg/mL (≈ 8.49 to 17 µM) | growth inhibition / antimicrobial activity against Mycobacterium smegmatis mc2155 [8]: inhibited the growth | effect on apparent Km of the enzyme for dUMP [1]: increased the apparent Km value | Ki [2]: 0.25 µM | genotoxicity ([9]; GreenScreen HC): non-genotoxic | cytotoxic activity in metabolic activation tests ([9]; S9 fraction, 10 μg/ml): further decreased | cytotoxic activity ([9]; without metabolic activation): low cytotoxic activity | IC50 [6]: 5 µM

O=C1C(O)=C(c2ccc(Br)cc2)C(=O)c2ccccc21 [Compound C8-S]
MIC ([5]; Helicobacter pylori, 26695, 24 h): 7 µg/mL (≈ 21.3 µM) | IC50 [6]: 1.2 µM

O=C(CC1=C(O)C(=O)c2ccccc2C1=O)c1ccccc1 [Compound E11-C1, 2-hydroxy-3-(2-oxo-2-phenylethyl)-1,4-naphthoquinone]
inhibition at 20 µM [7]: 36 ± 5%

Cc1ccc(C(=O)CC2=C(O)C(=O)c3ccccc3C2=O)cc1 [Compound F3-C1, 2-hydroxy-3-(2-oxo-2-p-tolylethyl)-1,4-naphthoquinone]
inhibition at 20 µM [7]: 38 ± 7%

O=C1C(O)=C(c2ccc(-c3ccccc3)cc2)C(=O)c2ccccc21 [Compound F6-C1, 2-(biphenyl-4-yl)-3-hydroxy-1,4-naphthoquinone]
inhibition at 20 µM [7]: 95 ± 3% | MIC [5, 10]: 10 µg/mL (≈ 30.6 µM) | IC50 [6]: 0.2 µM

COc1ccc(C(=O)CC2=C(O)C(=O)c3ccccc3C2=O)cc1 [Compound G3-C1, 2-hydroxy-3-(2-(4-methoxyphenyl)-2-oxoethyl)-1,4-naphthoquinone]
inhibition at 20 µM [7]: 22 ± 7% | MIC [5, 10]: 10 µg/mL (≈ 31 µM) | IC50 [6]: 13 µM

O=C(CC1=C(O)C(=O)c2ccccc2C1=O)c1cccs1 [Compound H3-C1, 2-hydroxy-3-(2-oxo-2-(thiophen-2-yl)ethyl)-1,4-naphthoquinone]
inhibition at 20 µM [7]: 38 ± 3% | MIC [5, 10]: 10 µg/mL (≈ 33.5 µM) | IC50 [6]: 8 µM

O=C1C(O)=C([C@H]2CC[C@H](c3ccc(Cl)cc3)CC2)C(=O)c2ccccc21 [atovaquone, reference compound]
effect on apparent Km of the enzyme for dUMP [1]: increased the apparent Km value | Ki [2]: 5 µM
